{"source": "ChEMBL document CHEMBL1240316", "about": "“An oxidation-sensing mechanism is used by the global regulator MgrA in Staphylococcus aureus” (2006)", "type_in_all_cases": "functional, organism-based", "key": {"[1]": {"tested_on": "Staphylococcus aureus", "test": "Antimicrobial activity against Staphylococcus aureus expressing mgrA C12S mutant gene assessed as visible growth at 0.65 ug/ml after 24 hrs"}, "[2]": {"tested_on": "Staphylococcus aureus", "test": "Antimicrobial activity against Staphylococcus aureus expressing mgrA C12S mutant gene assessed as visible growth at 0.25 ug/ml after 24 hrs in presence of 20 uM paraquat"}, "[3]": {"tested_on": "Staphylococcus aureus", "test": "Antimicrobial activity against Staphylococcus aureus expressing mgrA C12S mutant gene harboring Pyj335-His-mgrA assessed as visible growth at 0.55 ug/ml after 24 hrs"}, "[4]": {"tested_on": "Staphylococcus aureus", "test": "Antimicrobial activity against Staphylococcus aureus expressing mgrA C12S mutant gene harboring plasmid Pyj335 assessed as visible growth at 0.20 ug/ml after 24 hrs"}, "[5]": {"tested_on": "Staphylococcus aureus", "test": "Antimicrobial activity against Staphylococcus aureus expressing mgrA C12S mutant gene harboring plasmid Pyj335-His-mgrA assessed as visible growth at 0.45 ug/ml after 24 hrs in presence of 20 uM paraquat"}, "[6]": {"tested_on": "Staphylococcus aureus", "test": "Antimicrobial activity against Staphylococcus aureus expressing mgrA C12S mutant gene harboring Pyj335-His-mgrA assessed as visible growth at 0.55 ug/ml after 24 hrs in presence of 20 uM paraquat"}, "[7]": {"tested_on": "Staphylococcus aureus", "test": "Antimicrobial activity against Staphylococcus aureus expressing mgrA C12S mutant gene harboring Pyj335-His-mgrA assessed as visible growth at 0.65 ug/ml after 24 hrs in presence of 20 uM paraquat"}, "[8]": {"tested_on": "Staphylococcus aureus", "test": "Antimicrobial activity against Staphylococcus aureus assessed as visible growth at 0.55 ug/ml after 24 hrs in presence of 20 uM paraquat"}, "[9]": {"tested_on": "Staphylococcus aureus", "test": "Antimicrobial activity against Staphylococcus aureus expressing mgrA C12S mutant gene harboring Pyj335-His-mgrA assessed as visible growth at 0.45 ug/ml after 24 hrs"}, "[10]": {"tested_on": "Staphylococcus aureus", "test": "Antimicrobial activity against Staphylococcus aureus expressing mgrA C12S mutant gene assessed as visible growth at 0.45 ug/ml after 24 hrs in presence of 20 uM paraquat"}, "[11]": {"tested_on": "Staphylococcus aureus", "test": "Antimicrobial activity against Staphylococcus aureus expressing mgrA C12S mutant gene harboring plasmid Pyj335 assessed as visible growth at 0.75 ug/ml after 24 hrs"}, "[12]": {"tested_on": "Staphylococcus aureus", "test": "Antimicrobial activity against Staphylococcus aureus expressing mgrA C12S mutant gene assessed as visible growth at 0.35 ug/ml after 24 hrs in presence of 20 uM paraquat"}, "[13]": {"tested_on": "Staphylococcus aureus", "test": "Antimicrobial activity against Staphylococcus aureus assessed as visible growth at 0.25 ug/ml after 24 hrs"}, "[14]": {"tested_on": "Staphylococcus aureus", "test": "Antimicrobial activity against Staphylococcus aureus assessed as visible growth at 0.20 ug/ml after 24 hrs"}, "[15]": {"tested_on": "Staphylococcus aureus", "test": "Antimicrobial activity against Staphylococcus aureus expressing mgrA C12S mutant gene harboring Pyj335-His-mgrA assessed as visible growth at 0.20 ug/ml after 24 hrs in presence of 25 uM paraquat"}, "[16]": {"tested_on": "Staphylococcus aureus", "test": "Antimicrobial activity against Staphylococcus aureus expressing mgrA C12S mutant gene harboring plasmid Pyj335 assessed as visible growth at 0.25 ug/ml after 24 hrs"}, "[17]": {"tested_on": "Staphylococcus aureus", "test": "Antimicrobial activity against Staphylococcus aureus expressing mgrA C12S mutant gene assessed as visible growth at 0.20 ug/ml after 24 hrs"}, "[18]": {"tested_on": "Staphylococcus aureus", "test": "Antimicrobial activity against Staphylococcus aureus expressing mgrA C12S mutant gene harboring Pyj335-His-mgrA assessed as visible growth at 0.75 ug/ml after 24 hrs"}, "[19]": {"tested_on": "Staphylococcus aureus", "test": "Antimicrobial activity against Staphylococcus aureus expressing mgrA C12S mutant gene harboring Pyj335-His-mgrA assessed as visible growth at 0.65 ug/ml after 24 hrs"}, "[20]": {"tested_on": "Staphylococcus aureus", "test": "Antimicrobial activity against Staphylococcus aureus expressing mgrA C12S mutant gene harboring Pyj335-His-mgrA assessed as visible growth at 1.4 ug/ml after 24 hrs in presence of 20 uM paraquat"}, "[21]": {"tested_on": "Staphylococcus aureus", "test": "Antimicrobial activity against Staphylococcus aureus expressing mgrA C12S mutant gene harboring Pyj335-His-mgrA assessed as visible growth at 2.6 ug/ml after 24 hrs"}, "[22]": {"tested_on": "Staphylococcus aureus", "test": "Antimicrobial activity against Staphylococcus aureus expressing mgrA C12S mutant gene assessed as visible growth at 1.1 ug/ml after 24 hrs"}, "[23]": {"tested_on": "Staphylococcus aureus", "test": "Antimicrobial activity against Staphylococcus aureus expressing mgrA C12S mutant gene harboring Pyj335-His-mgrA assessed as visible growth at 1.4 ug/ml after 24 hrs"}, "[24]": {"tested_on": "Staphylococcus aureus", "test": "Antimicrobial activity against Staphylococcus aureus expressing mgrA C12S mutant gene harboring plasmid Pyj335 assessed as visible growth at 1.4 ug/ml after 24 hrs"}, "[25]": {"tested_on": "Staphylococcus aureus", "test": "Antimicrobial activity against Staphylococcus aureus expressing mgrA C12S mutant gene harboring Pyj335-His-mgrA assessed as visible growth at 1 ug/ml after 24 hrs"}, "[26]": {"tested_on": "Staphylococcus aureus", "test": "Antimicrobial activity against Staphylococcus aureus expressing mgrA C12S mutant gene assessed as visible growth at 1 ug/ml after 24 hrs in presence of 20 uM paraquat"}, "[27]": {"tested_on": "Staphylococcus aureus", "test": "Antimicrobial activity against Staphylococcus aureus expressing mgrAC12S mutant gene assessed as visible growth at 1.1 ug/ml after 24 hrs in presence of 100 uM hydrogen peroxide"}, "[28]": {"tested_on": "Staphylococcus aureus", "test": "Antimicrobial activity against Staphylococcus aureus assessed as visible growth at 1.8 ug/ml after 24 hrs"}, "[29]": {"tested_on": "Staphylococcus aureus", "test": "Antimicrobial activity against Staphylococcus aureus expressing mgrA C12S mutant gene harboring Pyj335-His-mgrA C12S assessed as visible growth at 1.1 ug/ml after 24 hrs in presence of 25 uM of paraquat"}, "[30]": {"tested_on": "Staphylococcus aureus", "test": "Antimicrobial activity against Staphylococcus aureus expressing mgrA C12S mutant gene harboring plasmid Pyj335 assessed as visible growth at 2.6 ug/ml after 24 hrs"}, "[31]": {"tested_on": "Staphylococcus aureus", "test": "Antimicrobial activity against Staphylococcus aureus assessed as visible growth at 2.2 ug/ml after 24 hrs"}, "[32]": {"tested_on": "Staphylococcus aureus", "test": "Antimicrobial activity against Staphylococcus aureus expressing mgrA C12S mutant gene assessed as visible growth at 2.6 ug/ml after 24 hrs"}, "[33]": {"tested_on": "Staphylococcus aureus", "test": "Antimicrobial activity against Staphylococcus aureus expressing mgrA C12S mutant gene harboring Pyj335-His-mgrA assessed as visible growth at 1 ug/ml after 24 hrs in presence of 20 uM paraquat"}, "[34]": {"tested_on": "Staphylococcus aureus", "test": "Antimicrobial activity against Staphylococcus aureus assessed as visible growth at 2.6 ug/ml after 24 hrs in presence of 20 uM paraquat"}, "[35]": {"tested_on": "Staphylococcus aureus", "test": "Antimicrobial activity against Staphylococcus aureus expressing mgrA C12S mutant gene assessed as visible growth at 1.4 ug/ml after 24 hrs in presence of 20 uM paraquat"}, "[36]": {"tested_on": "Staphylococcus aureus", "test": "Antimicrobial activity against Staphylococcus aureus assessed as visible growth at 1.1 ug/ml after 24 hrs in presence of 25 uM paraquat"}, "[37]": {"tested_on": "Staphylococcus aureus", "test": "Antimicrobial activity against Staphylococcus aureus expressing mgrA C12S mutant gene assessed as visible growth at 1.8 ug/ml after 24 hrs in presence of 20 uM paraquat"}, "[38]": {"tested_on": "Staphylococcus aureus", "test": "Antimicrobial activity against Staphylococcus aureus assessed as visible growth at 1 ug/ml after 24 hrs in presence of 20 uM paraquat"}, "[39]": {"tested_on": "Staphylococcus aureus", "test": "Antimicrobial activity against Staphylococcus aureus expressing mgrA C12S mutant gene harboring plasmid Pyj335 assessed as visible growth at 1.1 ug/ml after 24 hrs"}}, "note": "Activity calls are given as the source filed them. The rule behind the calls is not given here."}
{"smiles": "O=C(O)c1cn(C2CC2)c2cc(N3CCNCC3)c(F)cc2c1=O", "note": "[CIPROFLOXACIN]", "values": [{"measurement": "Activity", "setting": "[1]", "value": "inactive"}, {"measurement": "Activity", "setting": "[2]", "value": "inactive"}, {"measurement": "Activity", "setting": "[3]", "value": "Active"}, {"measurement": "Activity", "setting": "[4]", "value": "inactive"}, {"measurement": "Activity", "setting": "[5]", "value": "inactive"}, {"measurement": "Activity", "setting": "[6]", "value": "inactive"}, {"measurement": "Activity", "setting": "[7]", "value": "Active"}, {"measurement": "Activity", "setting": "[8]", "value": "Active"}, {"measurement": "Activity", "setting": "[9]", "value": "Active"}, {"measurement": "Activity", "setting": "[10]", "value": "inactive"}, {"measurement": "Activity", "setting": "[11]", "value": "Active"}, {"measurement": "Activity", "setting": "[12]", "value": "inactive"}, {"measurement": "Activity", "setting": "[13]", "value": "inactive"}, {"measurement": "Activity", "setting": "[14]", "value": "Active"}, {"measurement": "Activity", "setting": "[15]", "value": "Active"}, {"measurement": "Activity", "setting": "[16]", "value": "inactive"}, {"measurement": "Activity", "setting": "[17]", "value": "inactive"}, {"measurement": "Activity", "setting": "[18]", "value": "Active"}, {"measurement": "Activity", "setting": "[19]", "value": "Active"}]}
{"smiles": "CN[C@H](CC(C)C)C(=O)N[C@H]1C(=O)N[C@@H](CC(N)=O)C(=O)N[C@H]2C(=O)N[C@H]3C(=O)N[C@H](C(=O)N[C@H](C(=O)O)c4cc(O)cc(O)c4-c4cc3ccc4O)[C@H](O)c3ccc(c(Cl)c3)Oc3cc2cc(c3O[C@@H]2O[C@H](CO)[C@@H](O)[C@H](O)[C@H]2O[C@H]2C[C@](C)(N)[C@H](O)[C@H](C)O2)Oc2ccc(cc2Cl)[C@H]1O", "note": "[VANCOMYCIN]", "values": [{"measurement": "Activity", "setting": "[20]", "value": "inactive"}, {"measurement": "Activity", "setting": "[21]", "value": "Active"}, {"measurement": "Activity", "setting": "[22]", "value": "inactive"}, {"measurement": "Activity", "setting": "[23]", "value": "Active"}, {"measurement": "Activity", "setting": "[24]", "value": "inactive"}, {"measurement": "Activity", "setting": "[25]", "value": "inactive"}, {"measurement": "Activity", "setting": "[26]", "value": "inactive"}, {"measurement": "Activity", "setting": "[27]", "value": "inactive"}, {"measurement": "Activity", "setting": "[28]", "value": "Active"}, {"measurement": "Activity", "setting": "[29]", "value": "Active"}, {"measurement": "Activity", "setting": "[30]", "value": "Active"}, {"measurement": "Activity", "setting": "[31]", "value": "Active"}, {"measurement": "Activity", "setting": "[32]", "value": "Active"}, {"measurement": "Activity", "setting": "[33]", "value": "inactive"}, {"measurement": "Activity", "setting": "[34]", "value": "Active"}, {"measurement": "Activity", "setting": "[35]", "value": "inactive"}, {"measurement": "Activity", "setting": "[36]", "value": "Active"}, {"measurement": "Activity", "setting": "[37]", "value": "inactive"}, {"measurement": "Activity", "setting": "[38]", "value": "inactive"}, {"measurement": "Activity", "setting": "[39]", "value": "inactive"}]}
